Experimental data: US7005430B2, “Fused purine derivatives” (Kyowa Hakko Kogyo Co., Ltd., priority 1999, dated 2006)
Counter-ions that a name gives are not always drawn.

Assays:
[1] = tested on: MIN6 cell; assay: Insulin secretion promoting activity for cultured β cells (MIN6); type: cell-based
Protocol: Culture of the MIN6 cells above and insulin secretion test utilizing the MIN6 cells were performed according to the methods described in Diabetologia, vol. 36, pp. 1139–1145, 1993. The effect of a compound on the insulin secretion in the presence of 14.5 mmol/L glucose was determined by measuring insulin amounts in cell culture supernatants collected as follows. MIN6 cells cultured on a 24-well plate were washed twice by using 1 mL of Buffer A (119 mmol/L sodium chloride, 4.74 mmol/L potassium chloride, 2.54 mmol/L calcium chloride, 1.19 mmol/L magnesium sulfate, 1.19 mmol/L potassium dihydrogenphosphate, 10 mmol/L 2-[4-(2-hydroxyethyl)-1-piperazinyl]ethanesulfonic acid, 0.1% bovine serum albumin, pH 7.3) containing 2 mmol/L glucose, and then were incubated in 1 mL of Buffer A containing 2 mmol/L glucose at 37° C. for 45 minutes. After the incubation, the culture supernatant was changed to Buffer A (0.9 mL) containing a test compound at various concentrations and 2 mmol/L glucose, and the cells were further incubated at 37° C. for 15 minutes. The MIN6 cells were stimulated with glucose by the addition of Buffer A (0.1 mL) containing 127 mmol/L glucose to the culture (final glucose concentration: 14.5 mmol/L). After the stimulation, the cells were further incubated at 37° C. for 45 minutes, and then the culture supernatant was collected.
Separately, the effect of a compound on the insulin secretion in the presence of 5 mmol/L glucose was determined by measuring insulin amounts in cell culture supernatants collected as follows. MIN6 cells cultured on a 24-well plate were washed twice by using 1 mL of Buffer A containing 5 mmol/L glucose, and then the culture supernatant was changed to Buffer A (0.9 mL) containing a test compound at various concentrations and 5 mmol/L glucose. Then, the cells were incubated at 37° C. for 45 minutes (final glucose concentration: 5 mmol/L), and the culture supernatant was collected.
After the culture supernatant was diluted with a phosphate buffer containing 1% bovine serum albumin, 0.1% Tween 20, 0.12% disodium ethylenediaminetetraacetate (EDTA) and 0.1% sodium azide, antibody-reactive insulin secreted in the culture supernatant was quantified by enzyme immunoassay or radio immunoassay. The insulin level was indicated as the amount of human insulin (ng/mL). The results are indicated as averages (avg) for 3 to 4 samples with standard erroe values (se).

[2] = tested on: dd mice; assay: Acute toxicity test (minimum lethal dose); type: in vivo; conditions: po, mortality rate after seven days
Protocol: A test compound was orally administered to dd mice [male, body weight: 20±1 g (n=3)]. Mortality rate after seven days was measured to determine minimum lethal dose (MLD).

[3] = tested on: Wistar male rats; assay: Hyperglycemia suppressing action after glucose loading in normal rats; type: in vivo; conditions: 14 mg/kg po
Protocol: Wistar male rats (body weight: about 280 g) were used for the experiment after starvation for 24 hours. A test compound was orally administered to the rats 15 minutes before oral administration of glucose (2 g/kg). Blood was collected from a tail vein before the administration of the test compound and 30, 60, 120 and 180 minutes after the glucose loading, and blood glucose level was measured by using a simplified blood sugar level measuring apparatus.

[4] = in the presence of 5 mmol/L of glucose, drug concentration 10 (mmol/L [sic]), None = 51.2
[5] = in the presence of 14.5 mmol/L of glucose, drug concentration 1.0 μmol/L, None = 148.4

Row | SMILES | melting point | Insulin secretion amount (ng/ml) avg [1, 4] [ng/mL] | Insulin secretion amount (ng/ml) avg [1, 5] [ng/mL] | further results
1 | CCCN1C(=O)N2C[C@@H](Cc3ccccc3)N=C2c2[nH]c(CCC(=O)O)nc21 | 274 to 276 °C | – | – | –
2 | CCCN1C(=O)N2C[C@@H](Cc3ccccc3)N=C2c2c1nc(Br)n2Cc1ccccc1 [Compound 35, (R)-1,8-Dibenzyl-2-bromo-7,8-dihydro-4-(n-propyl)-1H-imidazo[2,1-i]purin-5(4H)-one] | 200 to 206 °C | – | – | –
3 | CCCN1C(=O)N2C[C@@H](Cc3ccccc3)N=C2c2[nH]c(C3CCN(C(=O)OC(C)(C)C)CC3)nc21.Cl | 204 to 205 °C | – | – | –
4 | CCCN1C(=O)N2C[C@@H](Cc3ccccc3)N=C2c2[nH]c(C3(O)CCCC3)nc21 (as salt: salt) [Compound 40, (R)-8-Benzyl-7,8-dihydro-2-(1-hydroxycyclopentyl)-4-(n-propyl)-1H-imidazo[2,1-i]purin-5(4H)-one] | 187 to 188 °C | – | – | –
5 | CCCN1C(=O)N2CC(Cc3ccncc3)N=C2c2[nH]c(C(C)(C)C)nc21 (stereo not drawn) [Compound 11, 2-(tert-Butyl)-7,8-dihydro-8-(4-picolyl)-4-(n-propyl)-1H-imidazo[2,1-i]purin-5(4H)-one] | 293 to 295 °C | – | – | –
6 | CCCc1nc2c([nH]1)C1=NC(Cc3ccncc3)CN1C(=O)N2CCC (stereo not drawn) [Compound 8, 7,8-Dihydro-8-(4-picolyl)-2,4-dipropyl-1H-imidazo[2,1-i]purin-5(4H)-one] | 270 to 274 °C | – | – | –
7 | CCCN1C(=O)N2CC(Cc3ccccc3)CN=C2c2[nH]c(COCC)nc21.O=C(O)/C=C/C(=O)O (stereo not drawn) | 152 to 157 °C | – | – | –
8 | O=C1N2CC(Cc3ccncc3)N=C2c2[nH]c(C3CCCC3)nc2N1CC1CC1 (stereo not drawn) [Compound 14, 2-Cyclopentyl-4-cyclopropylmethyl-7,8-dihydro-8-(4-picolyl)-1H-imidazo[2,1-i]purin-5(4H)-one dihydrochloride] | – | 66.4 | 177.9 | –
9 | CCCN1C(=O)N2C[C@@H](Cc3ccccc3)N=C2c2c1nc(C=O)n2Cc1ccccc1 [Compound 41, (R)-1,8-Dibenzyl-2-formyl-7,8-dihydro-4-(n-propyl)-1H-imidazo[2,1-i]purin-5(4H)-one] | 184 to 185 °C | – | – | –
10 | CSCCCOC1=Nc2nc(C3CCCC3)[nH]c2C2=N[C@H](Cc3ccccc3)CN12 [Compound 71, (R)-8-Benzyl-2-cyclopentyl-7,8-dihydro-5-(3-methylthiopropyloxy)-1H-imidazo[2,1-i]purine] | – | 107.7 | 211.0 | –
11 | CCCN1C(=O)N2C[C@@H](Cc3ccccc3)N=C2c2[nH]c(COCc3ccccc3)nc21.CCCN1C(=O)N2C[C@@H](Cc3ccccc3)N=C2c2[nH]c(COCc3ccccc3)nc21.O=C(O)/C=C/C(=O)O [Compound 56, (R)-8-Benzyl-2-benzyloxymethyl-7,8-dihydro-4-(n-propyl)-1H-imidazo[2,1-i]purin-5(4H)-one 0.5 fumarate] | – | 56.2 | 189.0 | –
12 | CCCN1C(=O)N2C[C@@H](Cc3ccncc3)N=C2c2[nH]c(C3CCCC3)nc21 [Compound 2, (R)-2-Cyclopentyl-7,8-dihydro-8-(4-picolyl)-4-(n-propyl)-1H-imidazo[2,1-i]purin-5(4H)-one D-tartrate] | – | 86.3 | 203.6 | minimum lethal dose (MLD) [2]: not less than 500 mg/kg; Plasma Glucose Concentration ([3]; 30 minutes after glucose loading (2 g/kg), Control 169 ± 7.2): 144 ± 6.6 mg/dL; Plasma Glucose Concentration ([3]; 60 minutes after glucose loading (2 g/kg), Control 167 ± 8.0): 156 ± 5.7 mg/dL; Plasma Glucose Concentration ([3]; 120 minutes after glucose loading (2 g/kg), Control 93 ± 4.5): 90 ± 5.7 mg/dL; Plasma Glucose Concentration ([3]; 180 minutes after glucose loading (2 g/kg), Control 83 ± 3.7): 82 ± 4.2 mg/dL; Plasma Glucose Concentration ([3]; time 0 (before administration of the test compound), Control 82 ± 3.7): 91 ± 2.1 mg/dL
13 | CSC1=Nc2nc(C(C)(C)C)[nH]c2C2=N[C@H](Cc3ccccc3)CN12 [Compound 73, (R)-8-Benzyl-2-(tert-butyl)-7,8-dihydro-5-methylthio-1H-imidazo[2,1-i]purine] | 171 to 174 °C | 63.3 | 176.6 | –
14 | CCCN1C(=O)N2C[C@@H](Cc3ccccc3)N=C2c2c1nc(CCl)n2Cc1ccccc1 [Compound 42, (R)-1,8-Dibenzyl-2-chloromethyl-7,8-dihydro-4-(n-propyl)-1H-imidazo[2,1-i]purin-5(4H)-one] | 112 to 113 °C | – | – | –
15 | O=C1N2CC(Cc3ccncc3)N=C2c2[nH]c(C3CCCC3)nc2N1CC1CC1 (stereo not drawn) (as salt: hydrochloride) [Compound 14, 2-Cyclopentyl-4-cyclopropylmethyl-7,8-dihydro-8-(4-picolyl)-1H-imidazo[2,1-i]purin-5(4H)-one dihydrochloride] | 240 to 241 °C | – | – | –
16 | CC(C)[C@H]1CC[C@H](C(=O)N[C@H](Cc2ccccc2)C(=O)O)CC1 [AY4166, reference compound] | – | 170.8 | – | secretion promoting action at a low glucose concentration (in words) ([1]; MIN6 cells, glucose at a low concentration (5 mmol/L)): marked secretion promoting action; Insulin secretion amount (ng/ml) avg ([1]; in the presence of 14.5 mmol/L of glucose, drug concentration 10 μmol/L, None = 148.4): 195.1 ng/mL
17 | CCOC1=Nc2nc(C(C)(C)C)[nH]c2C2=N[C@H](Cc3ccccc3)CN12 [Compound 70, (R)-8-Benzyl-2-(tert-butyl)-5-ethoxy-7,8-dihydro-1H-imidazo[2,1-i]purine] | 220 to 222 °C | 57.0 | 174.9 | –
18 | Cl.O=C(O)CN1C(=O)N2C[C@@H](Cc3ccccc3)N=C2c2[nH]c(C3CCCC3)nc21 | 280 °C (dec.) | – | – | –
19 | Cl.O=C1N2C[C@@H](Cc3ccc(F)cc3)N=C2c2[nH]c(C3CCCC3)nc2N1CCO | 165 to 167 °C | – | – | –
20 | CCCN1C(=O)N2C[C@@H](Cc3ccccc3)N=C2c2c1nc(SC)n2COC [Compound 36, (R)-8-Benzyl-7,8-dihydro-1-methoxymethyl-2-methylthio-4-(n-propyl)-1H-imidazo[2,1-i]purin-5(4H)-one] | 110 to 112 °C | – | – | –
